Literature values as cited in patent US20130071435A1, “NOVEL HERBAL FORMULATION FOR THE MODULATION OF IMMUNE SYSTEM OF HIV INFECTED PATIENTS AND A PROCESS OF PREPARATION THEREOF” (Sunil Kumar Swamy Rajan and Arun Kumar Swamy Rajan, priority 2011, published 2013).

Conditions: experimental, in-vitro and in-vivo studies

sitoindoside 1×
immuno-potentiating activity: significant immuno-potentiating activity

sitoindoside ×
immuno-potentiating activity: significant immuno-potentiating activity
